Activity calls are given as the source filed them. No cut-off for these calls is given here.
How the values were obtained:
[1] = test system: Staphylococcus aureus; test: Antibacterial activity against Staphylococcus aureus KCTC 1621 incubated for 24 hrs by CLSI based broth microdilution method; assay type: functional
[2] = test system: Staphylococcus aureus; test: Antibacterial activity against methicillin-resistant Staphylococcus aureus CCARM 3089 incubated for 24 hrs by CLSI based broth microdilution method; assay type: functional
[3] = test system: Staphylococcus aureus; test: Antibacterial activity against methicillin-resistant Staphylococcus aureus CCARM 3090 incubated for 24 hrs by CLSI based broth microdilution method; assay type: functional
[4] = test system: Acinetobacter baumannii; test: Antibacterial activity against multidrug-resistant Acinetobacter baumannii 329-97 incubated for 24 hrs by CLSI based broth microdilution method; assay type: functional
[5] = test system: Acinetobacter baumannii; test: Antibacterial activity against carbapenem-resistant Acinetobacter baumannii NMS 1707 incubated for 24 hrs by CLSI based broth microdilution method; assay type: functional
[6] = test system: Acinetobacter baumannii; test: Antibacterial activity against carbapenem-resistant Acinetobacter baumannii NMS 1915 incubated for 24 hrs by CLSI based broth microdilution method; assay type: functional
[7] = test system: Escherichia coli; test: Antibacterial activity against Escherichia coli KCTC 1682 incubated for 24 hrs in presence of NaCl by CLSI based broth microdilution method; assay type: functional
[8] = test system: Escherichia coli; test: Antibacterial activity against Escherichia coli KCTC 1682 incubated for 24 hrs in presence of KCl by CLSI based broth microdilution method; assay type: functional
[9] = test system: Escherichia coli; test: Antibacterial activity against Escherichia coli KCTC 1682 incubated for 24 hrs in presence of MgCl2 by CLSI based broth microdilution method; assay type: functional
[10] = Hemolytic activity in sheep RBC at 256 uM incubated for 1 hr by absorbance based assay; assay type: toxicity, cell-based, Ovis aries, Erythrocyte; conditions: sheep red blood cells, read-out: Activity
[11] = Effect on secondary structure of drug in PBS assessed as formation of random coil structure at 150 uM by CD analysis; assay type: physicochemical; conditions: buffer
[12] = Effect on secondary structure of drug in TFE assessed as fold increase in formation of alpha-helical conformation at 150 uM by CD analysis relative to HVF18; assay type: physicochemical
[13] = Effect on secondary structure of drug in LPS assessed as fold increase in formation of alpha-helical conformation at 150 uM by CD analysis relative to HVF18; assay type: physicochemical
[14] = test system: Escherichia coli; test: Induction of resistance development in Escherichia coli KCTC 1682 at 0.5 times MIC measured after 30 passages; assay type: functional, organism-based
[15] = test system: Escherichia coli; test: Induction of cytoplasmic membrane potential in Escherichia coli KCTC 1682 at 0.5 to 1 times MIC measured for 500 secs by diSC3-5 dye based analysis; assay type: functional, organism-based; conditions: time 500.0 sec
[16] = test system: Escherichia coli; test: Induction of cytoplasmic membrane depolarization in Escherichia coli KCTC 1682 at 0.5 times MIC measured for 500 secs by diSC3-5 dye based analysis relative to control; assay type: functional; conditions: time 500 sec; 0.1389 h
[17] = test system: Escherichia coli; test: Induction of cytoplasmic membrane depolarization in Escherichia coli KCTC 1682 at MIC measured for 500 secs by diSC3-5 dye based analysis relative to control; assay type: functional; conditions: time 500 sec; 0.1389 h
[18] = test system: Escherichia coli; test: Induction of outer membrane permeabilization in Escherichia coli KCTC 1682 by NPN dye based analysis; assay type: functional, organism-based
[19] = test system: Pseudomonas aeruginosa; test: Eradication of biofilm formation in multi-drug resistant Pseudomonas aeruginosa CCARM 2095 at 32 uM incubated for 12 hrs by CLSM analysis relative to control; assay type: functional
[20] = test system: Pseudomonas aeruginosa; test: Inhibition of biofilm formation in multi-drug resistant Pseudomonas aeruginosa CCARM 2095 at 1 to 128 uM by crystal violet staining based analysis; assay type: functional, organism-based; conditions: dose 1-128 µM
[21] = test system: Pseudomonas aeruginosa; test: Eradication of biofilm formation in multi-drug resistant Pseudomonas aeruginosa CCARM 2095 at 1 to 128 uM incubated for 12 hrs by CLSM analysis; assay type: functional, organism-based; conditions: dose 1-128 µM
[22] = test system: Pseudomonas aeruginosa; test: Anti-biofilm activity against multi-drug resistant Pseudomonas aeruginosa CCARM 2095 assessed as increase in red-stained dead cells at 32 uM incubated for 12 hrs by SYTO9/PI staining based analysis; assay type: functional, organism-based
[23] = test system: Staphylococcus aureus; test: Synergistic antibacterial activity against methicillin-resistant Staphylococcus aureus CCARM 3089 assessed as MIC of Chloramphenicol incubated for 24 hrs by broth microdilution method; assay type: functional
[24] = test system: Staphylococcus aureus; test: Synergistic antibacterial activity against methicillin-resistant Staphylococcus aureus CCARM 3089 assessed as fractional inhibitory concentration index by measuring ratio of MIC of Chloramphenicol in presence of compound to MIC to Chloramphenicol incubated for 24 hrs by broth microdilution method; assay type: functional
[25] = test system: Staphylococcus aureus; test: Synergistic antibacterial activity against methicillin-resistant Staphylococcus aureus CCARM 3089 incubated for 24 hrs in presence of Chloramphenicol by broth microdilution method; assay type: functional
[26] = test system: Staphylococcus aureus; test: Synergistic antibacterial activity against methicillin-resistant Staphylococcus aureus CCARM 3089 assessed as fractional inhibitory concentration index by measuring ratio of MIC of compound in presence of Chloramphenicol to MIC to compound incubated for 24 hrs by broth microdilution method; assay type: functional
[27] = test system: Staphylococcus aureus; test: Synergistic antibacterial activity against methicillin-resistant Staphylococcus aureus CCARM 3089 assessed as MIC of Oxacillin incubated for 24 hrs by broth microdilution method; assay type: functional
[28] = test system: Staphylococcus aureus; test: Synergistic antibacterial activity against methicillin-resistant Staphylococcus aureus CCARM 3089 assessed as fractional inhibitory concentration index by measuring ratio of MIC of compound in presence of Oxacillin to MIC to compound incubated for 24 hrs by broth microdilution method; assay type: functional
[29] = test system: Pseudomonas aeruginosa; test: Antibacterial activity against multi-drug resistant Pseudomonas aeruginosa CCARM 2095 incubated for 24 hrs by broth microdilution method; assay type: functional
[30] = test system: Pseudomonas aeruginosa; test: Synergistic antibacterial activity against multi-drug resistant Pseudomonas aeruginosa CCARM 2095 assessed as fractional inhibitory concentration index by measuring ratio of MIC of Chloramphenicol in presence of compound to MIC to Chloramphenicol incubated for 24 hrs by broth microdilution method; assay type: functional
[31] = test system: Pseudomonas aeruginosa; test: Synergistic antibacterial activity against multi-drug resistant Pseudomonas aeruginosa CCARM 2095 assessed as fractional inhibitory concentration index by measuring ratio of MIC of compound in presence of Chloramphenicol to MIC to compound incubated for 24 hrs by broth microdilution method; assay type: functional
[32] = test system: Pseudomonas aeruginosa; test: Synergistic antibacterial activity against multi-drug resistant Pseudomonas aeruginosa CCARM 2095 assessed as MIC of Ciprofloxacin incubated for 24 hrs by broth microdilution method; assay type: functional
[33] = test system: Pseudomonas aeruginosa; test: Synergistic antibacterial activity against multi-drug resistant Pseudomonas aeruginosa CCARM 2095 assessed as fractional inhibitory concentration index by measuring ratio of MIC of compound in presence of Ciprofloxacin to MIC to compound incubated for 24 hrs by broth microdilution method; assay type: functional
[34] = test system: Pseudomonas aeruginosa; test: Synergistic antibacterial activity against multi-drug resistant Pseudomonas aeruginosa CCARM 2095 incubated for 24 hrs in presence of Oxacillin by broth microdilution method; assay type: functional
[35] = test system: Pseudomonas aeruginosa; test: Synergistic antibacterial activity against multi-drug resistant Pseudomonas aeruginosa CCARM 2095 assessed as fractional inhibitory concentration index incubated for 24 hrs in presence of Oxacillin by broth microdilution method; assay type: functional
[36] = test system: RAW264.7; test: Anti-inflammatory activity in mouse RAW264.7 cells assessed as decrease in LPS-induced TNF-alpha level at 2.5 uM pretreated for 1 hr followed by LPS treatment for 16 hrs by ELISA relative to control; assay type: functional; conditions: time 17 hrs
[37] = test system: RAW264.7; test: Anti-inflammatory activity in mouse RAW264.7 cells assessed as decrease in LPS-induced TNF-alpha level at 5 uM pretreated for 1 hr followed by LPS treatment for 16 hrs by ELISA relative to control; assay type: functional; conditions: time 17 hrs

Which results are given for H-GVFRLKKWIKKVIKKWGK-NH2?
MIC [1]: 8 µM; MIC [2]: 8 µM; MIC [3]: 8 µM; MIC [4]: 2 µM; MIC [5]: 4 µM; MIC [6]: 2 µM; MIC [7]: 32 µM; MIC [8]: 32 µM; MIC [9]: 32 µM; hemolysis at 1 h, 256 µM [10]: 8.9%; Activity [11]: Active; fold change (FC) [12]: ~ 5; fold change (FC) [13]: ~ 5; Activity [14]: inactive; Activity [15]: Active; Activity [16]: ~50%; Activity [17]: ~100%; Activity [18]: Dose-dependent-effect; Activity [19]: >50%; Activity [20]: Active; Superior Activity Compared To Ll-37; Activity [21]: Active; Superior Activity Compared To Ll-37; Activity [22]: Active; MIC [23]: 256 µM; FIC [24]: 0.25; MIC [25]: 2 µM; FIC [26]: 0.25; MIC [27]: 512 µM; FIC [28]: 0.063; MIC [29]: 8 µM; FIC [30]: 0.125; FIC [31]: 0.25; MIC [32]: 128 µM; FIC [33]: 0.5; MIC [34]: 2 µM; fractional inhibitory concentration index (FICI) [35]: 0.281; inhibition at 2.5 µM [36]: 2.6%; inhibition at 5 µM [37]: 5.7%

For H-GVFRLKKWLKKVKKWGK-NH2, which MIC [1] is on record?
The MIC was 8 µM.

And the MIC [2]?
The MIC was 8 µM.

What about the MIC [3] of the same substance?
Its MIC is 8 µM.

And the MIC [4]?
The MIC was 4 µM.

What about the MIC [5] of the same substance?
Its MIC is 4 µM.

And the MIC [6]?
The MIC was 4 µM.

And the MIC [7]?
The MIC was 32 µM.

What about the MIC [8] of the same substance?
Its MIC is 16 µM.

And the MIC [9]?
The MIC was 32 µM.

What about the hemolysis at 1 h, 256 µM [10] of the same substance?
Its hemolysis at 1 h, 256 µM is 9.1%.

And the Activity [11]?
Its Activity is “Active”.

What about the “fold change (FC)” value [12] of the same substance?
Its value is ~ 5.

What about the “fold change (FC)” value [13] of the same substance?
Its value is ~ 5.

And the Activity [14]?
The Activity was “inactive”.

What about the Activity [15] of the same substance?
The Activity was “Active”.

What about the Activity [16] of the same substance?
Its Activity is about 50%.

What about the Activity [17] of the same substance?
The Activity was about 100%.

And the Activity [18]?
Its Activity is “Dose-dependent-effect”.

And the Activity [19]?
Its Activity is over 50%.

What about the Activity [20] of the same substance?
The Activity was “Active; Superior Activity Compared To Ll-37”.

And the Activity [21]?
Its Activity is “Active; Superior Activity Compared To Ll-37”.

And the Activity [22]?
The Activity was “Active”.

And the MIC [23]?
Its MIC is 512 µM.

And the FIC [24]?
The FIC was 0.5.

What about the MIC [25] of the same substance?
The MIC was 0.5 µM.

What about the FIC [26] of the same substance?
Its FIC is 0.063.

And the MIC [27]?
The MIC was 512 µM.

What about the FIC [28] of the same substance?
The FIC was 0.063.

And the MIC [29]?
The MIC was 8 µM.

What about the FIC [30] of the same substance?
The FIC was 0.125.

What about the FIC [31] of the same substance?
The FIC was 0.25.

What about the MIC [32] of the same substance?
The MIC was 256 µM.

What about the FIC [33] of the same substance?
Its FIC is 0.5.

What about the MIC [34] of the same substance?
The MIC was 2 µM.

What about the “fractional inhibitory concentration index (FICI)” value [35] of the same substance?
Its value is 0.281.

What about the inhibition at 2.5 µM [36] of the same substance?
Its inhibition at 2.5 µM is 32.3%.

What about the inhibition at 5 µM [37] of the same substance?
The inhibition at 5 µM was 78.1%.

— ChEMBL document CHEMBL6074662, “Antibacterial, Antibiofilm, and Anti-inflammatory Effects of a Novel Thrombin-Derived Peptide in Sepsis Models: Insights into Underlying Mechanisms” (J Med Chem, 2024)
